Source: US6765020B2, “Drugs for prevention and treatment of diseases caused by abnormalities in cartilage tissues” (Suntory Limited, priority 1995, dated 2004)

Legend:
[1] = test system: carrageenan-induced edema; settings: rat models; cited from earlier work
[2] = test system: chondrocytes of the rabbit knee joint; test: Synthesis of type II collagen by primary culture of chondrocytes (density of 116 kD band on electrophoresis); assay type: cell-based; settings: for Activity of recovering the synthesis of type II collagen inhibited by arachidonic acid: fatty acid added at 300 μM
Experimental: Using the primary culture of chondrocytes of the rabbit knee joint, the effects of mead acid on the synthesis of type II collagen was compared with that of other fatty acids, in particular arachidonic acid. The mead acid used was 99% 5,8,11-cis-eicosatrienoic acid ethyl ester highly purified in the same manner as in Example 1, and for arachidonic acid, oleic acid and linoleic acid, the commercially available 99% ethyl esters thereof were used. Chondrocytes were prepared from the knee joints of 4-week old Japan white rabbits in accordance with the method of Suzuki and Shimomura [Shimomurra, Y., Yoneda, T., Suzuki, F. Osteogenesis by chondrocyte from growth cartilage of rat rib., Calcif. Tissue Int., 19:179-187, 1975]. The chondrocytes were plated at 10,000 cells/well of the 96-well plate (Iwaki Glass K.K.) in (MEM medium (50 μg/ml vitamin C, 1 ng/ml b-FGF were added) supplemented with 10% bovine calf serum, and pre-incubated for two days (5% CO2, 37° C.). The fatty acids were suspended in 0.0625% HCO-60 prior to use. As the pre-treatment with the fatty acids, the plates were divided into three groups and added thereto the solvent (0.0625% HCO-60) (group A), mead acid (the final concentration, 300 μM) (group B), and arachidonic acid (the final concentration, 300 μM) (group C), and then incubated for about 5 days while the culture medium and the fatty acids were replaced with fresh ones every two days.
Subsequently, the culture medium was replaced with αMEM medium (1 μg/ml transferrin, 1 μM dexamethasone, 2 μg/ml insulin, 50 μg/ml vitamin C) and each fatty acid (mead acid, arachidonic acid, oleic acid, and linoleic acid) was added thereto to a final concentration of 300 μM followed by incubation for seven days to synthesize extracellular matrix. The culture medium and each of the fatty acids were replaced every 2 days with freshly prepared ones. Pepsin (2 mg/ml) acetate solution was added to the plate at 200 μl/well and treated at 37° C. for 24 hours. The residue was recovered from each well and was centrifuged at 15,000 rpm for 10 minutes to form a precipitate, which was then washed once with tris-EDTA buffer (pH 8.0) and dissolved in 100 μl of the SDS sample buffer.
The amount of type II collagen synthesized was determined by electrophoresing 1/10 volume of each sample solution on the multigel 4/20 (Daiichi Kagaku K.K.) and measuring the density of the 116 kD band after staining with Cooumassie Brilliant Blue.

[3] = test system: rabbit model of osteoarthritis; test: Range of motion (ROM) of the right knee joint in rabbit models of osteoarthritis prepared using arthrodesis by cast; assay type: in vivo; settings: 0.6 ml of 1 mg/ml solution/joint, right articular cavity twice per week for five weeks; solvent group 70%
Experimental: Models of osteoarthritis were prepared using arthrodesis by cast. The animals used were 12-week old male rabbits (Kbl: NZW, Kitayama Labesu K. K.). Under anesthesia by intramuscular administration of 2 mg/kg of xylazine hydrochloride (Selactal, Bayer A. G.) and 50 mg/kg of ketamine hydrochloride (Ketalar 50 for animals, Sankyo K.K.) (hereinafter referred to as “under anesthesia”), hair was cut off the right hind leg. Then after the region from the upper thigh to the toe was covered with the stockinette and cast pad (3M Medicine K.K.), the knee joint was fixed for three weeks at a stretched and bent position by casting tape (3M Medicine K.K.). […]
In accordance with Example 2, models of osteoarthritis of the knee were prepared using arthrodesis by cast and were divided into three groups of five animals per group so that the average weight and the range of motion of joints of each group became uniform. […] In accordance with Example 2, dosage samples were administered in the right articular cavity twice per week for five weeks and ROM of the joint of the right knee was measured.

[4] = group C pretreated with arachidonic acid 300 μM (FIG. 3, sample No. 11-15)

In the case of `CCCCCCCCC=CCC=CCC=CCCCC(=O)O` [5,8,11-eicosatrienoic acid], the “Anti-inflammatory effect on carrageenan-induced edema” value [1] is listed as “anti-inflammatory effect”.

With `CCCCC/C=C\C/C=C\C/C=C\C/C=C\CCCC(=O)O` [arachidonic acid] the “Effect of addition of fatty acid on synthesis of type II collagen” value ([2]; 300 μM, seven days, group A pretreated with solvent (FIG. 3, sample No. 1-5)) was “inhibited synthesis of type II collagen” and the “Inhibition of type II collagen synthesis in group C pretreated with arachidonic acid” value ([2]; 300 μM, group C pretreated with arachidonic acid 300 μM (FIG. 3, sample No. 11-15)) was “more conspicuous”.

For `CCCCC/C=C\C/C=C\CCCCCCCC(=O)O` [linoleic acid], the “Activity of recovering the synthesis of type II collagen inhibited by arachidonic acid” value [2, 4] was “not observed”.

In the case of `CCCCCCCC/C=C\CCCCCCCC(=O)O` [oleic acid], the “Activity of recovering the synthesis of type II collagen inhibited by arachidonic acid” value [2, 4] is reported as “not observed”.

For `CCCCCCCCC=CC/C=C\CCCCC(=O)OCC` [solution A, 6,9-cis-octadecadienoic acid ethyl ester], the “ROM at week five after the start of administration” value [3] was 80.2%.

In the case of `CCCCCCCCC=CC/C=C\CCCCCCC(=O)OCC` [solution B, 8,11-cis-eicosadienoic acid ethyl ester], the “ROM at week five after the start of administration” value [3] is reported as 83.6%.
